Like-named read-outs stand apart in the source and are kept apart here.
Columns and labels:
[1] = Protocol: (§1) Zinc dehydroacetate and zinc pyrithione were mixed with filled and clear commercial flexible polyvinyl chloride (PVC) compounds. The mixtures were extruded using an intermeshing modular co-rotating twin screw extruder to form flexible PVC compounds. […] Following extrusion, the flexible PVC compounds were cooled. Once cooling was complete, the flexible PVC compounds were pressed at 185° C. to form plastic sheets.
as §1, with “Zinc” for “Zinc dehydroacetate and zinc”, “pyrithione was” for “pyrithione were”
The weathering tester was set to a cycle of eight hours of ultraviolet A light (long wave) exposure and a four hour water condensation cycle in accordance with ASTM […]. After 1,000 hours of exposure, the plastic sheets were examined for color development.

[2] = test system: Aspergillus niger ATCC 9642; Aureobasidium pullulans ATCC 15233; Chaetomium globosum ATCC 6205; Penicillium funiculosum ATCC 11797; Trichoderma virens ATCC …; assay: Fungal resistance test, ASTM G21, on mineral salts agar; design: Zone of Inhibition: key to the marks not given beside the values; settings: PVC samples inoculated with mixed fungi, 28° C., 4 weeks

With zinc pyrithione the “Color Rating of Clear FPVC” value ([1]; clear flexible PVC sheet, 0 hours QUV exposure) was 0, the “Color Rating of Clear FPVC” value ([1]; clear flexible PVC sheet, 1,000 hours QUV exposure (8 h UVA / 4 h condensation cycle)) was 3 and the “Color Rating of Filled FPVC” value ([1]; filled flexible PVC sheet, 0 hours QUV exposure) was 0. The “Color Rating of Filled FPVC” value ([1]; filled flexible PVC sheet, 1,000 hours QUV exposure (8 h UVA / 4 h condensation cycle)) was 4, the “Fungal Growth Reading” value [2] was 0 and the “Zone of Inhibition” value [2] was “++”.

— patent publication US9034943B2, “Salts of dehydroacetic acid as a pyrithione stabilizer in plastics” (LONZA LTD, priority 2009, dated 2015)
